Reference: patent US12551482B2, “Aurora kinase inhibitors” (The Regents of the University of California, priority 2013, dated 2026)

What was measured:
Assay in all cases: Cancer cell line profiling, Genomics of Drug Sensitivity Project
[1] = test system: Detroit 562; settings: Homo sapiens, Detroit 562, read-out: CD532 EC50 (uM)
[2] = test system: 8505C; settings: Homo sapiens, read-out: CD532 EC50 (uM)
[3] = test system: LS-123; settings: Homo sapiens, LS-123, read-out: CD532 EC50 (uM)
[4] = test system: WM-115; settings: Homo sapiens, WM-115, read-out: CD532 EC50 (uM)
[5] = test system: JHH-1; settings: JHH1, read-out: CD532 EC50 (uM)
[6] = test system: COLO-800; settings: Homo sapiens, COLO-800, read-out: CD532 EC50 (uM)
[7] = test system: A253; settings: Homo sapiens, A253, read-out: CD532 EC50 (uM)
[8] = test system: HSC-4; settings: Homo sapiens, HSC-4, read-out: CD532 EC50 (uM)
[9] = test system: TT; assay type: cell-based; settings: Homo sapiens, read-out: CD532 EC50 (uM), Thyroid
[10] = test system: WM35; settings: WM35, read-out: CD532 EC50 (uM)
[11] = test system: HN; assay type: cell-based; settings: read-out: CD532 EC50 (uM), Head & Neck
[12] = test system: IGR-37; settings: Homo sapiens, IGR-37, read-out: CD532 EC50 (uM)
[13] = test system: BFTC-909; settings: Homo sapiens, BFTC-909, read-out: CD532 EC50 (uM)

Compound: O=C(Nc1ccc(Nc2nccc(Nc3cc(C4CCCC4)[nH]n3)n2)cc1)Nc1cccc(C(F)(F)F)c1 [CD532, 1-(4-((4-((5-cyclopentyl-1H-pyrazol-3-yl)amino)pyrimidin-2-yl)amino)phenyl)-3-(3-(trifluoromethyl)phenyl)urea]
- EC50 [1]: 1.25 µM
- EC50 [2]: 0.662 µM
- EC50 [3]: 0.861 µM
- EC50 [4]: 0.412 µM
- EC50 [5]: 0.295 µM
- EC50 [6]: 0.302 µM
- EC50 [7]: 24.5 µM
- EC50 [8]: 0.885 µM
- EC50 [9]: 0.972 µM
- EC50 [10]: 0.367 µM
- EC50 [11]: 1.63 µM
- EC50 [12]: 0.547 µM
- EC50 [13]: 1.51 µM
